ChEMBL document CHEMBL3425412, “Additional sesterterpenes and a nortriterpene saponin from the sponge Clathria gombawuiensis” (2015)
In brackets after ≈: the same amount, converted by molar mass.

Legend:
Type in all cases: functional
A549 = experiment: Cytotoxicity against human A549 cells; conditions: read-out: LC50 (the source's name)
K562 = experiment: Cytotoxicity against human K562 cells; conditions: read-out: LC50 (the source's name)
Staphylococcus aureus = experiment: Antimicrobial activity against Staphylococcus aureus ATCC 6538p after 24 hrs by twofold dilution method
Proteus hauseri = experiment: Antimicrobial activity against Proteus hauseri NBRC 3851 after 24 hrs by twofold dilution method; conditions: NBRC 3851, 24 h
Bacillus subtilis = experiment: Antimicrobial activity against Bacillus subtilis ATCC 6633 after 24 hrs by twofold dilution method; conditions: ATCC 6633, 24 h
Kocuria rhizophila = experiment: Antimicrobial activity against Kocuria rhizophila NBRC 12708 after 24 hrs by twofold dilution method; conditions: NBRC 12708, 24 h
Salmonella enterica = experiment: Antimicrobial activity against Salmonella enterica ATCC 14028 after 24 hrs by twofold dilution method; conditions: ATCC 14028, 24 h

| Compound | CC50 (A549) [µM] | CC50 (K562) [µM] | MIC (Staphylococcus aureus) [µg/mL] | MIC (Proteus hauseri) [µg/mL] | MIC (Bacillus subtilis) [µg/mL] | MIC (Kocuria rhizophila) [µg/mL] | MIC (Salmonella enterica) [µg/mL] |
| --- | --- | --- | --- | --- | --- | --- | --- |
| CC1=CC(=O)[C@@H]2[C@@]3(C)CCCC(C)(C)[C@@H]3[C@@H](O)C[C@]2(C)c2c1ccc(C)c2O | 4.7 | 5.4 | > 100 | > 100 | – | – | – |
| C=C1/C=C\[C@@H]2[C@@]3(C)CCCC(C)(C)[C@@H]3[C@H](O)C[C@@]2(C)O[C@@H]2C=C(C)C(=O)C[C@H]12 | 3.9 | 4.5 | > 100 | > 100 | – | – | – |
| CC(=O)[C@H]1CC[C@@]2(C)C3=C(CC[C@]12C)[C@@]1(C)CCC(O[C@@H]2O[C@H](C(=O)O)[C@@H](O)[C@H](OS(=O)(=O)[O-])[C@H]2O)C(C)(C)[C@@H]1CC3.[Na+] (some centres undefined) | 2.1 | 1.8 | > 100 | 3.1 | 1.6 | > 100 | > 100 |
| COc1c(C)ccc2c1[C@@]1(C)C[C@H](O)[C@H]3C(C)(C)CCC[C@]3(C)[C@H]1C(=O)C=C2C | > 100 | > 100 | – | – | – | – | – |
| CC1(C)S[C@@H]2[C@H](NC(=O)[C@H](N)c3ccccc3)C(=O)N2[C@H]1C(=O)O [AMPICILLIN] | – | – | 0.4 (≈ 1.14 µM) | 0.4 (≈ 1.14 µM) | 0.4 (≈ 1.14 µM) | 0.4 (≈ 1.14 µM) | 0.8 (≈ 2.29 µM) |
| COc1cccc2c1C(=O)c1c(O)c3c(c(O)c1C2=O)C[C@@](O)(C(=O)CO)C[C@@H]3O[C@H]1C[C@H](N)[C@H](O)[C@H](C)O1 [DOXORUBICIN] | 1.1 | 1.5 | – | – | – | – | – |
